Data from article PMC10584882 (Communications Biology, 2023).
Values joined by “and” are separate entries in the source; they are usually repeats but may differ in a detail not shown here. Equal entries are not always repeated.

Key:
[1] = target: T1, CatL (Homo sapiens, UniProt P07711); experiment: Cathepsin inhibition test, CatL; assay type: biochemical; conditions: for Residual activity (Vi/V0): Fig. S3 panel b, single replicates
T1 construct: made in house

[2] = target: T2, human CatV (Homo sapiens, UniProt O60911); experiment: Cathepsin inhibition test, CatV; assay type: biochemical; conditions: Fig. S3 panel c, single replicates
T2 construct: made in house

[3] = test system: SARS-CoV-2; experiment: Viral loading determination via RT-qPCR in LC-HK2 cells; assay type: cell-based; conditions: LC-HK2, RT-qPCR
[4] = inhibitor 0.105 nM, 0.000105 µM
[5] = inhibitor 0.189 nM, 0.000189 µM
[6] = inhibitor 0.612 nM, 0.000612 µM
[7] = inhibitor 1.103 nM, 0.001103 µM
[8] = inhibitor 1.985 nM, 0.001985 µM

T2 sequence (O60911 114-334): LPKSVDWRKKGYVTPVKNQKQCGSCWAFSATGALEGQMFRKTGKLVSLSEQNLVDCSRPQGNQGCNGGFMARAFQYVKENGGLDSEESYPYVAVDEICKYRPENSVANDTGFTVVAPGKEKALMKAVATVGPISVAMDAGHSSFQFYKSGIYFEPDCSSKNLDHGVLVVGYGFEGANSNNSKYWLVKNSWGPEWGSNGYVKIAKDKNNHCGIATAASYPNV
T1 sequence (P07711 114-333): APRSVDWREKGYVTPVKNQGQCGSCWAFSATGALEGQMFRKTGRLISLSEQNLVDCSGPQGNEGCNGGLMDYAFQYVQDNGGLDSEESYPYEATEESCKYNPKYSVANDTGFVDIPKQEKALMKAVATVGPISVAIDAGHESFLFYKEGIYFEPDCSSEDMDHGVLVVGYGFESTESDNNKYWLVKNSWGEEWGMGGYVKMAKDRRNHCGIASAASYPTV

CCCC[C@@H](C=O)NC(=O)[C@H](CC(C)C)NC(=O)OCc1ccccc1 [Calpeptin, reference compound]
Residual activity (Vi/V0) ([1]; inhibitor 0.010 nM, 10 pM): 1.181 and 1.134 and 0.9277 and 1.059 and 0.8624 and 0.9348 and 0.9777 and 1.017 and 0.9832 and 0.6727 | Residual activity (Vi/V0) ([1]; inhibitor 0.018 nM, 18 pM): 1.262 and 1.015 and 0.8756 and 0.9203 and 0.9271 and 0.9762 and 0.9712 and 1.058 and 1.013 and 1.061 | Residual activity (Vi/V0) ([1]; inhibitor 0.032 nM, 32 pM): 1.274 and 1.3352 and 0.8294 and 0.9418 and 0.8372 and 0.9412 and 1.0025 and 0.9769 and 1.076 and 1.186 | Residual activity (Vi/V0) ([1]; inhibitor 0.058 nM, 58 pM): 1.241 and 1.238 and 0.7232 and 0.8381 and 0.7506 and 0.9356 and 0.9293 and 0.9501 and 1.073 and 1.146 | Residual activity (Vi/V0) [1, 4]: 1.299 and 0.9537 and 0.6352 and 0.6893 and 0.6342 and 0.9772 and 0.9319 and 0.9262 and 1.17 and 1.244 | Residual activity (Vi/V0) [1, 5]: 1.276 and 0.7939 and 0.4796 and 0.5261 and 0.4831 and 0.8363 and 0.8485 and 0.8665 and 1.045 and 0.9948 | Residual activity (Vi/V0) ([1]; inhibitor 0.340 nM, 0.00034 µM): 1.076 and 0.6362 and 0.1912 and 0.3311 and 0.2442 and 0.7013 and 0.6724 and 0.6039 and 0.9136 and 0.9341 | Residual activity (Vi/V0) [1, 6]: 0.7699 and 0.3953 and 0.2966 and 0.328 and 0.2718 and 0.8608 and 0.8769 and 0.888 and 0.6121 and 0.7229 | Residual activity (Vi/V0) [1, 7]: 0.6194 and 0.292 and 0.1922 and 0.2117 and 0.1777 and 0.7372 and 0.725 and 0.6702 and 0.5009 and 0.6045 | Residual activity (Vi/V0) [1, 8]: 0.4333 and 0.2071 and 0.1127 and 0.1262 and 0.1102 and 0.4283 and 0.4219 and 0.4519 and 0.4308 and 0.4332 | Ki ([1]; mean with standard deviation and 95% confidence interval, pH 5.5, 37 °C): 0.131 nM | Residual activity (Vi/V0) ([2]; inhibitor 0.010 nM, 10 pM): 0.7492 and 0.8662 and 0.9665 and 0.9783 and 1.034 and 0.8959 and 1.049 and 1.043 | Residual activity (Vi/V0) ([2]; inhibitor 0.018 nM, 18 pM): 1.426 and 1.071 and 0.8111 and 0.946 and 1.016 and 0.7983 and 1.052 and 1.107 | Residual activity (Vi/V0) ([2]; inhibitor 0.032 nM, 32 pM): 0.6155 and 0.7103 and 0.8989 and 0.8852 and 0.9741 and 0.7786 and 1.073 and 1.106 | Residual activity (Vi/V0) ([2]; inhibitor 0.058 nM, 58 pM): 0.4678 and 0.5573 and 0.8821 and 0.907 and 0.9499 and 0.7317 and 1.135 and 1.04 | Residual activity (Vi/V0) [2, 4]: 0.3395 and 0.4697 and 0.9391 and 1.0131 and 0.8776 and 0.5515 and 1.047 and 0.9299 | Residual activity (Vi/V0) [2, 5]: 0.2218 and 0.3638 and 0.7852 and 0.7629 and 0.7844 and 0.3361 and 0.9055 and 0.7253 | Residual activity (Vi/V0) ([2]; inhibitor 0.340 nM, 0.00034 µM): 0.127 and 0.1861 and 0.5926 and 0.6199 and 0.6546 and 0.1805 and 0.6841 and 0.4951 | Residual activity (Vi/V0) [2, 6]: 0.08315 and 0.0899 and 0.6171 and 0.6648 and 0.6032 and 0.1116 and 0.3127 and 0.292 | Residual activity (Vi/V0) [2, 7]: 0.07258 and 0.065 and 0.4015 and 0.4879 and 0.4441 and 0.08067 and 0.1763 and 0.1568 | Residual activity (Vi/V0) [2, 8]: 0.02995 and 0.03856 and 0.2299 and 0.2925 and 0.2801 and 0.03165 and 0.06168 and 0.07508 | Residual activity (Vi/V0) ([2]; inhibitor 3.572 nM, 0.003572 µM): 0.007933 and 0.009299 and 0.124 and 0.1265 and 0.09125 and 0.0154 and 0.02738 and 0.02841 | Residual activity (Vi/V0) ([2]; inhibitor 6.430 nM, 0.00643 µM): 0.0062 and 0.004492 and 0.03048 and 0.04147 and 0.02591 and 0.007404 and 0.008251 and 0.01699 | Residual activity (Vi/V0) ([2]; inhibitor 11.547 nM, 0.011547 µM): 0.001379 and -0.0006257 and 0.001045 and 0.01451 | Viral titer (% control) ([3]; 0.0006 μM): 100 % control | Viral titer (% control) ([3]; 0.0012 μM): 100 % control | Viral titer (% control) ([3]; 0.0024 μM): 100 % control | Viral titer (% control) ([3]; 0.0049 μM): 100 % control | Viral titer (% control) ([3]; 0.0098 μM): 100 % control | Viral titer (% control) ([3]; 0.0195 μM): 100 % control | Viral titer (% control) ([3]; 0.0391 μM): 100 % control | Viral titer (% control) ([3]; 0.0781 μM): 100 % control | Viral titer (% control) ([3]; 0.1563 μM): 100 % control and 71.76 % control | Viral titer (% control) ([3]; 0.3125 μM): 77.19 % control and 100 % control | Viral titer (% control) ([3]; 0.625 μM): 85.89 % control and 100 % control | Viral titer (% control) ([3]; 1.25 μM): 75.06 % control and 100 % control | Viral titer (% control) ([3]; 100 μM): 0 % control
